For two molecules, t1/2 and Kd results are on record in publication PMC4381067, “How ‘arm-twisting’ by the inducer triggers activation of the MalT transcription factor, a typical signal transduction ATPase with numerous domains (STAND)” (Nucleic Acids Research, 2015).

The target of assay [1] is T1, HMalT (His-tagged MalT) (Escherichia coli, UniProt P06993, Q70C/E395C).
T1 construct: full-length, His-tagged; purified on Ni2+ resin then Superdex 200; monomeric in resting form, multimerizes with maltotriose and ATP
T1 sequence (P06993 whole entry Q70C/E395C): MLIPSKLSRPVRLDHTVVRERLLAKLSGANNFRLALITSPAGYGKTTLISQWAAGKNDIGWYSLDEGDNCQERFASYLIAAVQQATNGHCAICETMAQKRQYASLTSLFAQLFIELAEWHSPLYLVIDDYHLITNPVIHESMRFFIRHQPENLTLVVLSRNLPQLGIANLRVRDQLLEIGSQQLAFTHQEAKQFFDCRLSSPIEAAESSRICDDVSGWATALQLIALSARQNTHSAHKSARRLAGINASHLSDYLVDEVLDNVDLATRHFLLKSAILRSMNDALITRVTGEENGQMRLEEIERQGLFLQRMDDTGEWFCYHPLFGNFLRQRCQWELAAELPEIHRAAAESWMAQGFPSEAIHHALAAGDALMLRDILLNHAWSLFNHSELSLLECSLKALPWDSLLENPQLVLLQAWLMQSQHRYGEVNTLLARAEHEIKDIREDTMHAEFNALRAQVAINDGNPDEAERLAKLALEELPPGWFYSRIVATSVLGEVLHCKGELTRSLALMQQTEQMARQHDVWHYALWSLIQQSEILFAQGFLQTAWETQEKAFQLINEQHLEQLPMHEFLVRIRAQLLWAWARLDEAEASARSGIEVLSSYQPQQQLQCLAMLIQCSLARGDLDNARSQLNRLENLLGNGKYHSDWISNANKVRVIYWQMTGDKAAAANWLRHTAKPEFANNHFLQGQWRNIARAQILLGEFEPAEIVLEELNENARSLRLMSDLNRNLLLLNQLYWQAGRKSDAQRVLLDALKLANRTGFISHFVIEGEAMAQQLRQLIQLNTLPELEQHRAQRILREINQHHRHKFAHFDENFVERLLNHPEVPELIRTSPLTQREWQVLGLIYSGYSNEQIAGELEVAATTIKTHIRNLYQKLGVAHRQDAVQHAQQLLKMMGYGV
Put plainly: filter-binding assay, dissociation of [α-32P]ADP complex chased by cold ADP. As to conditions: labelled compound; oxidized form (C70-C395 disulfide), no DTT, with or without 20 mM maltotriose; buffer B pH 8.0, 10 mM Mg acetate, 25°C; 1 mM cold ADP chase.

In assay [2] the target is T2, HMalT (His-tagged MalT) (Escherichia coli, UniProt P06993).
T2 construct: full-length, His-tagged; purified on Ni2+ resin then Superdex 200; monomeric in resting form, multimerizes with maltotriose and ATP
T2 sequence (P06993 1-901): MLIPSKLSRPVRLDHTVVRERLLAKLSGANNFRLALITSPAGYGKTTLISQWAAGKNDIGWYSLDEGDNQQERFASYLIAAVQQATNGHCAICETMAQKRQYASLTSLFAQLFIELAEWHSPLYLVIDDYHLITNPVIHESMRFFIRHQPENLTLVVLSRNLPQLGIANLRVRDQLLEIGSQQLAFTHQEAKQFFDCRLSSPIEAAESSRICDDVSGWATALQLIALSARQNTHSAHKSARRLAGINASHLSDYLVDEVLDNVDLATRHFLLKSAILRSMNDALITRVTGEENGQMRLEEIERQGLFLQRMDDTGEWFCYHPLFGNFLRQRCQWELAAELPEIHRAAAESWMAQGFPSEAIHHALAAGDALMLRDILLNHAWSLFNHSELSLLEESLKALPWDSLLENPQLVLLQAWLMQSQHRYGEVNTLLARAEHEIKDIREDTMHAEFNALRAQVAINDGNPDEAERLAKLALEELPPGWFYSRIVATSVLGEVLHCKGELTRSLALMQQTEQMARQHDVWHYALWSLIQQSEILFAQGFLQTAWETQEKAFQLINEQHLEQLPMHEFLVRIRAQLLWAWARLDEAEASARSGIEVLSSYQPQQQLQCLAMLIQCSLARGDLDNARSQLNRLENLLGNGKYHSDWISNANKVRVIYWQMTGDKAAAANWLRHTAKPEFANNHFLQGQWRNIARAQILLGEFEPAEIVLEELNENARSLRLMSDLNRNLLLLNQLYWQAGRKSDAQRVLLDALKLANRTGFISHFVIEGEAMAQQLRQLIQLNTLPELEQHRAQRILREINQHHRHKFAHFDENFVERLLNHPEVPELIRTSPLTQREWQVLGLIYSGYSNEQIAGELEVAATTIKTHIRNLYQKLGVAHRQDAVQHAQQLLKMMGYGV
Described as above. The note with it: labelled compound; resting form, no maltotriose; buffer B pH 8.0, 10 mM Mg acetate, 25°C; 1 mM cold ADP chase.

Assay [3] deals with T3, HMalT^336-806 (arm-sensor polypeptide) (Escherichia coli, UniProt P06993).
T3 construct: gene malT; arm-sensor fragment, residues 336-806, His-tagged; purified on Ni2+ resin then Superdex 200
T3 sequence (P06993 336-806): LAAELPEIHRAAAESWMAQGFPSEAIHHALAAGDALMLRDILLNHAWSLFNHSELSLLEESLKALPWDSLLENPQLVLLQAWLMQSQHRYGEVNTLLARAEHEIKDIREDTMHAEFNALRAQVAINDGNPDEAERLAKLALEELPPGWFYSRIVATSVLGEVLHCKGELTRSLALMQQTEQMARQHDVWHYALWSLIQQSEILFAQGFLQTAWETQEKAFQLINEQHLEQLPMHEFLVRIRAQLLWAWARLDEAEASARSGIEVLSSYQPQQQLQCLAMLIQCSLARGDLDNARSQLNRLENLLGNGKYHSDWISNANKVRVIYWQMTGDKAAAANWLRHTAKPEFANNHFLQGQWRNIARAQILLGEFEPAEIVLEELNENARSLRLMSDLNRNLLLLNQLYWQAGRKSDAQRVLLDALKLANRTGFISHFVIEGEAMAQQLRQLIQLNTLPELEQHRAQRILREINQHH
Put plainly: intrinsic tryptophan fluorescence titration, quadratic fit. As to conditions: 20 mM Tris-HCl pH 8.0, 0.2 M KCl, 20°C; 1 μM protein; excitation 295 nm, emission 323 nm. The class given is binding.

For assay [4], the target named is T1, HMalT (His-tagged MalT). Put plainly: limited proteinase K proteolysis protection (arm-sensor hinge), SDS-PAGE quantification, binding isotherm. The note with it: 50 mM HEPES pH 8.0, 10.1 mM Mg acetate, 0.44 mM ATP, 25°C; no reducing agent: oxidized form, C70-C395 disulfide locks NOD closed; full saturation assumed at 50 mM; read-out: KD (apparent dissociation constant).

For assay [5], the target named is T2, HMalT (His-tagged MalT). Described as above. As to conditions: 50 mM HEPES pH 8.0, 10.1 mM Mg acetate, 0.44 mM ATP, 25°C; no reducing agent; full saturation assumed at 50 mM; read-out: KD (apparent dissociation constant).

Consider `Nc1ncnc2c1ncn2[C@@H]1O[C@H](COP(=O)(O)OP(=O)(O)O)[C@@H](O)[C@H]1O` [ADP], for which the figures for the t1/2 at HMalT (His-tagged MalT) [1] and at HMalT (His-tagged MalT) [2] were greater than 500 min and 119 ± 11 min, respectively.
In the case of `OC[C@H]1O[C@H](O[C@H]2[C@H](O)[C@@H](O)[C@@H](O[C@H]3[C@H](O)[C@@H](O)C(O)O[C@@H]3CO)O[C@@H]2CO)[C@H](O)[C@@H](O)[C@@H]1O` (some centres unmarked) [maltotriose], the Kd in assay [3] was 2700 ± 1200 nM; at HMalT (His-tagged MalT) [4] it was 2.6 ± 0.5 mM; at HMalT (His-tagged MalT) [5] it was 131 ± 12 µM.
